For data set [1], the system named is male Crlj:WI rats. Description: Bone growth-promoting effect on rats in the growth phase, seven days (Example 3). The note with it: hGH 500 μg/kg/day subcutaneous, versus control group. Type of data set: in vivo. As for the experimental part: The synthetic peptide No. 1 or water for injection (control) was administered to male Crlj:WI rats at the age of four weeks by oral gavage using a gastric tube once a day for seven days (n=10 in each group). The dosage of the synthetic peptide was 1, 10 or 100 mg/kg/day. As a positive control, human growth hormone (hGH) (Norditropin, Japan Standard Commodity Classification Number: 872412) was subcutaneously administered at 500 μg/kg/day once a day for seven days. As fluorescent labels for the bone formation site, tetracycline (20 mg/kg) was subcutaneously administered on day 4 after the administration of the peptide or controls, and then calcein (10 mg/kg) was subcutaneously administered on day 6 after the administration of the peptide or controls. After the administration of the sample on day 7, the rats were kept under fasting conditions. […] Undecalcified specimens of the proximal tibia were prepared and photographed under a fluorescent microscope (BX-53, Olympus Corporation), and the bone morphology was measured using a morphometry system (Histometry RT digitizer, System Supply Co., Ltd.). The longitudinal growth rate (Lo.G.R.) of the growth plate per day was determined by measuring the distance between the tetracycline and calcein labels and dividing the distance by the time interval between the administrations of the two fluorescent labels (two days).

In data set [2] the test system is male Crlj:WI rats. The experiment in a line: Osteogenesis-promoting effect on growth plate and secondary cancellous bone, 21 days (Example 5). The note with it: peptide 100 mg/kg/day oral, hGH 500 μg/kg/day subcutaneous, versus control group, FIG. 14. Type of data set: in vivo. As for the experimental part: The synthetic peptide No. 1 or water for injection (control) was administered to male Crlj:WI rats at the age of four weeks by oral gavage using a gastric tube once a day for 21 days. The dosage of the synthetic peptide was 100 mg/kg/day. As a positive control, human growth hormone (hGH) was subcutaneously administered at 500 μg/kg/day once a day for 21 days. As fluorescent labels for the bone formation site, tetracycline (20 mg/kg) was subcutaneously administered on day 18 after the administration of the peptide or controls, and then calcein (10 mg/kg) was subcutaneously administered on day 20 after the administration of the peptide or controls. After the administration of the sample on day 21, the rats were kept under fasting conditions. […] Undecalcified specimens of the proximal tibia were prepared and photographed under a fluorescent microscope (BX-53, Olympus Corporation), and the bone morphology was measured using a morphometry system (Histometry RT digitizer, System Supply Co., Ltd.) and an analysis software (CSS-840 cancellous bone morphometry version, System Supply Co., Ltd.). The longitudinal growth rate (Lo.G.R.) of the epiphyseal plate per day was determined by measuring the distance between the tetracycline and calcein labels and dividing the distance by the time interval between the administrations of the two fluorescent labels (two days).

Data set [3] deals with male Crlj:WI rats. The experiment in a line: Calcification rate and morphometry in secondary cancellous bone, seven days (Example 6). Type of data set: in vivo. Conditions: peptide 1, 10 or 100 mg/kg/day oral, hGH 500 μg/kg/day subcutaneous, versus control group, FIG. 18. As for the experimental part: The synthetic peptide No. 1 or water for injection (control) was administered to male Crlj:WI rats at the age of four weeks by oral gavage using a gastric tube once a day for seven days (n=10 in each group). The dosage of the synthetic peptide was 1, 10 or 100 mg/kg/day. As a positive control, human growth hormone (hGH) (Norditropin, Japan Standard Commodity Classification Number: 872412) was subcutaneously administered at 500 μg/kg/day once a day for seven days. As fluorescent labels for the bone formation site, tetracycline (20 mg/kg) was subcutaneously administered on day 4 after the administration of the peptide or controls, and then calcein (10 mg/kg) was subcutaneously administered on day 6 after the administration of the peptide or controls. After the administration of the sample on day 7, the rats were kept under fasting conditions. […] Undecalcified specimens of the proximal tibia were prepared and photographed under a fluorescent microscope (BX-53, Olympus Corporation), and the bone morphology was measured using a morphometry system (Histometry RT digitizer, System Supply Co., Ltd.). The daily calcification rate (mineral apposition rate) was determined by measuring the distance between the tetracycline and calcein labels in the secondary cancellous bones and dividing the distance by the time interval between the administrations of the two fluorescent labels (two days).

Data set [4] can be described thus: Effect on body weight (Example 7). Type of data set: in vivo. The note with it: rats, days 1, 3, 5 and 7; peptide 1, 10 or 100 mg/kg/day oral, hGH 500 μg/kg/day subcutaneous; FIG. 24. As for the experimental part:
The synthetic peptide No. 1 or water for injection (control) was administered to male Crlj:WI rats at the age of four weeks by oral gavage using a gastric tube once a day for seven days (n=10 in each group). The dosage of the synthetic peptide was 1, 10 or 100 mg/kg/day. As a positive control, human growth hormone (hGH) (Norditropin, Japan Standard Commodity Classification Number: 872412) was subcutaneously administered at 500 μg/kg/day once a day for seven days. The body weight was measured on days 1, 3, 5 and 7 of administration.

Data set [5] has as its system mouse osteoblast-like cell line MC3T3-E1 Subclone-4. Description: Proliferation-promoting activity on osteoblastic precursor cells (BrdU uptake). In kind it is cell-based. As for the experimental part:
The mouse osteoblast-like cell line MC3T3-E1 Subclone-4 (ATCC No. CRL-2593) was cultured in α-MEM medium supplemented with 10% FBS at 37° C. in 5% CO2-95% air to subconfluence. The cells were collected by trypsinization. The collected cells were suspended at 5×10^4 cells/mL in fresh α-MEM medium with the same supplement. One hundred microliters of the cell suspension was seeded in each well of a 96-well plate, and precultured at 37° C. in 5% CO2-95% air. On the next day, the medium was replaced with α-MEM medium containing the sample dissolved therein with a supplement of 0.1% FBS. The cells were further cultured for 24 hours. The proliferative activity of the osteoblastic precursor cells was assessed by measuring the amount of BrdU uptake. The proliferation-promoting activity of the sample on the osteoblastic precursor cells was expressed as a value relative to the proliferation level of the cells in the absence of the sample, which was taken as 100.

Data set [6] relates to mouse chondrogenic cell line ATDC5. The experiment in a line: Proliferation-promoting activity on chondrogenic cells (BrdU uptake). In kind it is cell-based. The note with it: ATDC5, 24 hours, relative to absence of sample = 100, FIGS. 5 and 6. As for the experimental part: The mouse chondrogenic cell line ATDC5 (RCB0565) was cultured in DMEM/F-12 medium supplemented with 5% FBS, 3×10-8 M sodium selenite and 5 μg/mL human transferrin at 37° C. in 5% CO2-95% air to subconfluence. The cells were collected by trypsinization. The collected cells were suspended at 5×10^4 cells/mL in fresh DMEM/F-12 medium with the same supplements. One hundred microliters of the cell suspension was seeded in each well of a 96-well plate, and precultured at 37° C. in 5% CO2-95% air. On the next day, the medium was replaced with DMEM/F-12 medium containing the sample dissolved therein with a supplement of 3×10^−8 M sodium selenite and 5 μg/mL human transferrin. The cells were further cultured for 24 hours. The proliferative activity of the chondrogenic cells was assessed by measuring the amount of BrdU uptake. The proliferation-promoting activity of the sample on the chondrogenic cells was expressed as a value relative to the proliferation level of the cells in the absence of the sample, which was taken as 100.

Data set [7] concerns insulin-like growth factor (IGF-1). The experiment in a line: Promoting effect on IGF-1 production after single oral dose (Example 8). In kind it is in vivo. Conditions: rats. As for the experimental part: The synthetic peptide No. 1 or No. 2 or water for injection (control) was orally administered as a single dose to male Wistar rats at the age of four weeks by using a gastric tube (n=6 in each group). The dosage of the synthetic peptide No. 1 or No. 2 was 10 mg/kg. The blood was collected from the tail before administration and 30, 45, 60 and 90 minutes after administration, and the serum was separated. At 120 minutes after administration, the whole blood was collected from the abdominal vena cava under anesthesia and the rats were euthanized (see FIG. 25). The concentration of IGF-1 in the serum was measured by ELISA (Mouse/Rat IGF-I Quantikine ELISA Kit (MG100), R&D Systems, Inc.).
The concentration dependence of the synthetic peptides was examined. The synthetic peptide No. 1 was orally administered as a single dose of 1, 5 or 10 mg/kg (n=6 in each group). At 60 minutes after administration, the rats were euthanized under anesthesia, and the liver was harvested. The concentration of IGF-1 in the serum and liver was measured. For the serum IGF-1 concentration, the difference (Δ value) before and after administration was also determined.
The synthetic peptide No. 2 was orally administered to the rats as a single dose of 0.1, 1 or 10 mg/kg (n=6 in each group). At 45 minutes after administration, the rats were euthanized under anesthesia, and the liver was harvested. The concentration of IGF-1 in the serum and liver was measured. For the serum IGF-1 concentration, the difference (Δ value) before and after administration was also determined.

For data set [8] the test system is unchanged. The experiment in a line: IGF-1 production: peptide No. 2 versus reverse sequence and constituent amino acids (Example 9). Conditions: rats, single oral dose 10 mg/kg, 45 minutes, groups No. 2, R-No. 2, AA, control. Type of data set: in vivo. As for the experimental part: The synthetic peptide No. 2, a peptide consisting of a reverse sequence of the peptide No. 2 (SEQ ID NO: 3; herein also called R-No. 2), constituent amino acids of the synthetic peptide No. 2 (herein also called AA), or water for injection (control) was orally administered as a single dose to male Wistar rats at the age of four weeks by using a gastric tube (n=6 in each group). The dosage of the synthetic peptide, the reverse sequence peptide and the constituent amino acids was 10 mg/kg. At 45 minutes after administration, the rats were euthanized under anesthesia, and the liver was harvested. The concentration of IGF-1 in the serum and liver was measured by ELISA (Mouse/Rat IGF-I Quantikine ELISA Kit (MG100), R&D Systems, Inc.). For the serum IGF-1 concentration, the difference (Δ value) before and after administration was also determined.

For “hGH: human growth hormone (hGH) (Norditropin), positive control, subcutaneously administered”, in the data set with male Crlj:WI rats [1] (peptide 10 mg/kg/day oral, FIG. 9), the “area of the hypertrophic cartilage layer” value is “significantly larger”. Besides, the “longitudinal growth rate (Lo.G.R.) of the growth plate per day” value in the data set with male Crlj:WI rats [1] (peptide 1, 10 or 100 mg/kg/day oral, FIG. 8) is reported as “significant promotion of bone growth”. Further, in the data set with male Crlj:WI rats [2], the “longitudinal growth rate (Lo.G.R.) of the epiphyseal plate per day” value is “significant promotion of bone growth”. Also, the “calcification rate (mineral apposition rate) in the secondary cancellous bone” value in the data set on male Crlj:WI rats [3] is “significant increase”. In addition, the “change in the body weight” value in data set [4] was “No significant change”.
As for “Val-Asn-Pro-Glu (VNPE) [synthetic peptide No. 2]”, the “proliferation-promoting activity on osteoblastic precursor cells” value in data set [5] (MC3T3-E1, 24 hours, BrdU uptake, relative to absence of sample = 100, FIGS. 3 and 4) is on record as “promoted the proliferation”. Moreover, the “concentration at which the proliferation-promoting effect is exhibited” value in data set [5] (MC3T3-E1, BrdU uptake) is listed as “sufficiently exhibited its effect at a low concentration”. Further, the “proliferation-promoting activity on osteoblastic precursor cells, comparison between the peptides” value in data set [5] (MC3T3-E1, BrdU uptake, No. 2 versus No. 1) is listed as “higher activity than the synthetic peptide No. 1”. In addition, the “proliferation-promoting activity on chondrogenic cells” value in data set [6] was “promoted the proliferation”. In addition, in data set [7] (single oral dose 10 mg/kg, at 45 and 60 minutes after administration, versus control, FIG. 27), the “concentration of IGF-1 in the serum (time course)” value is reported as “significantly higher”. Besides, in data set [7] (single oral dose 0.1, 1 or 10 mg/kg, 45 minutes), the “dose dependence of IGF-1 concentration in the serum and liver” value is reported as “increased in a dose-dependent manner”. Further, the “concentration of IGF-1 in the serum” value in data set [7] (single oral dose 0.1, 1 or 10 mg/kg, 45 minutes after administration, versus control group, FIG. 30) was “significantly higher”; in data set [8] (FIG. 32), “significantly higher”. Further, the “concentration of IGF-1 in the liver” value in data set [7] (single oral dose 0.1, 1 or 10 mg/kg, 45 minutes after administration, versus control group, FIG. 31) was “significantly higher”; in data set [8] (FIG. 33) it was “significantly higher”.

For the origin of these results see patent US11241475B2, “Preventive and/or therapeutic agent for osteogenesis imperfecta and other diseases” (Pharma Foods International Co., Ltd., priority 2016, dated 2022).
